Experimental data as given in paper PMC10135569, “Does Enhanced Structural Maturity of hiPSC-Cardiomyocytes Better for the Detection of Drug-Induced Cardiotoxicity?” (Biomolecules, 2023).

Key:
[1] = test system: hiPSC-CMs (iCell2 Cardiomyocytes) 2D monolayers; experiment: Contractility measurements using video imaging (ContractilityTool / MUSCLEMOTION); type: cell-based, human; conditions: for activity at 0.1 µM / activity at 0.3 µM / activity at 1 µM / activity at 3 µM: Homo sapiens, Cardiomyocyte, 0.5 h, 30 min, delta over DMSO 0.1%
How it was run: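 Monolayers on fibronectin or Matrix Plus coating, tested on days 5–6 in serum-free medium. Four concentrations, one per well, n = 8, with vehicle control.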

[2] = listed in Supplementary Table S1; no reference given; cited from earlier work
[3] = test system: hiPSC-CMs (iCell2 Cardiomyocytes) 2D monolayers; experiment: Membrane potential (action potential) recordings with FluoVolt voltage-sensitive dye on the CellOPTIQ platform; type: cell-based, human; conditions: for activity at 0.1 µM / activity at 0.3 µM / activity at 1 µM / activity at 3 µM: Homo sapiens, Cardiomyocyte, 0.5 h, 30 min, delta over DMSO 0.1%
How it was run: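 iCell2 hiPSC-CM monolayers (50,000 cells/well on fibronectin or Matrix Plus, days 5–6) were loaded with FluoVolt (1:1000, 20 min, 37 °C) and imaged at 37 °C with 470 nm excitation and 510–560 nm emission sampled at 10 kHz. Spontaneous action potentials were recorded for 10 s at baseline and 30 min after drug, with one of four concentrations per well (n = 8).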

[4] = 0.01–1 uM, two 2D monolayer models
[5] = FM monolayer, read-out: CtAmp (%DD)
[6] = FM monolayer, read-out: CtD50 (%DD)
[7] = MM monolayer, read-out: CtAmp (%DD)
[8] = MM monolayer, read-out: CtD50 (%DD)
[9] = FM monolayer, read-out: APD30 (%DD)
[10] = FM monolayer, read-out: APD90 (%DD)
[11] = FM monolayer, read-out: CL (%DD)
[12] = FM monolayer, read-out: Trise (%DD)
[13] = MM monolayer, read-out: APD30 (%DD)
[14] = MM monolayer, read-out: APD90 (%DD)
[15] = MM monolayer, read-out: CL (%DD)
[16] = MM monolayer, read-out: Trise (%DD)
[17] = both FM and MM monolayers, concentration not given

## C[C@@H]1CC(=O)NN=C1c1ccc(NN=C(C#N)C#N)cc1 [Levosimendan]
[1]; [4]
  effects on contractile activity: no physiologically significant effects
[1]; [5]
  activity at 0.1 µM: 125 ± 20.8%
  activity at 0.3 µM: 94 ± 9.6%
  activity at 1 µM: 155 ± 32.5%
  activity at 3 µM: 122 ± 26.6%
[1]; [6]
  activity at 0.1 µM: 94 ± 3.2%
  activity at 0.3 µM: 100 ± 2.4%
  activity at 1 µM: 102 ± 2.7%
  activity at 3 µM: 101 ± 1.8%
[1]; [7]
  activity at 0.1 µM: 120 ± 12.4%
  activity at 0.3 µM: 95 ± 8.1%
  activity at 1 µM: 199 ± 27.2%
  activity at 3 µM: 167 ± 33.5%
[1]; [8]
  activity at 0.1 µM: 104 ± 2%
  activity at 0.3 µM: 102 ± 1.3%
  activity at 1 µM: 104 ± 2%
  activity at 3 µM: 103 ± 2.3%
[1]; both experimental groups
  increasing the amplitude of contraction (positive inotropy): ineffective
[1]; higher concentrations, FM and MM, not statistically significant
  contractile amplitude at higher concentrations (in words): increased
[1]; higher concentrations, both groups, failed to reach significance
  change in amplitude of contraction at higher concentrations: < 20%
[2]
  Free Cmax: 100 nM
[3]; [4]
  effects on electrical activity: no physiologically significant effects
[3]; [9]
  activity at 0.1 µM: 102 ± 2.2%
  activity at 0.3 µM: 101 ± 2.9%
  activity at 1 µM: 94 ± 3%
  activity at 3 µM: 99 ± 3.9%
[3]; [10]
  activity at 0.1 µM: 96 ± 1.7%
  activity at 0.3 µM: 94 ± 1.1%
  activity at 1 µM: 93 ± 0.6%
  activity at 3 µM: 94 ± 1%
[3]; [11]
  activity at 0.1 µM: 95 ± 1.4%
  activity at 0.3 µM: 93 ± 1.1%
  activity at 1 µM: 93 ± 1.6%
  activity at 3 µM: 97 ± 1.2%
[3]; [12]
  activity at 0.1 µM: 97 ± 22.3%
  activity at 0.3 µM: 80 ± 13.5%
  activity at 1 µM: 65 ± 9.5%
  activity at 3 µM: 101 ± 24.9%
[3]; [13]
  activity at 0.1 µM: 97 ± 1.4%
  activity at 0.3 µM: 100 ± 2.2%
  activity at 1 µM: 95 ± 1.7%
  activity at 3 µM: 93 ± 1.9%
[3]; [14]
  activity at 0.1 µM: 96 ± 1.2%
  activity at 0.3 µM: 100 ± 1%
  activity at 1 µM: 98 ± 0.9%
  activity at 3 µM: 98 ± 0.9%
[3]; [15]
  activity at 0.1 µM: 99 ± 0.8%
  activity at 0.3 µM: 97 ± 0.7%
  activity at 1 µM: 97 ± 0.7%
  activity at 3 µM: 98 ± 0.5%
[3]; [16]
  activity at 0.1 µM: 107 ± 17.8%
  activity at 0.3 µM: 121 ± 16.3%
  activity at 1 µM: 96 ± 7.8%
  activity at 3 µM: 114 ± 10.2%

## C=C[C@H]1C[N@@]2CC[C@H]1C[C@@H]2[C@@H](O)c1ccnc2ccc(OC)cc12 [Quinidine]
[1]; [5]
  activity at 0.3 µM: 66 ± 15.3%
  activity at 1 µM: 162 ± 50.3%
[1]; [6]
  activity at 0.3 µM: 111 ± 6.3%
  activity at 1 µM: 106 ± 1.8%
[1]; [7]
  activity at 0.3 µM: 118 ± 21.6%
  activity at 1 µM: 99 ± 13.1%
  activity at 3 µM: 106 ± 11.4%
[1]; [8]
  activity at 0.3 µM: 107 ± 2.7%
  activity at 1 µM: 97 ± 2.5%
  activity at 3 µM: 105 ± 1.5%
[2]
  Free Cmax: 920 nM
[3]; [9]
  activity at 0.3 µM: 105 ± 2.9%
  activity at 1 µM: 104 ± 1.4%
[3]; [10]
  activity at 0.3 µM: 115 ± 2.5%
  activity at 1 µM: 122 ± 1.4%
[3]; [12]
  activity at 0.3 µM: 103 ± 14%
  activity at 1 µM: 135 ± 8.3%
[3]; [13]
  activity at 0.3 µM: 104 ± 1.4%
  activity at 1 µM: 100 ± 1.2%
  activity at 3 µM: 103 ± 2.1%
[3]; [14]
  activity at 0.3 µM: 108 ± 1.2%
  activity at 1 µM: 115 ± 0.8%
  activity at 3 µM: 121 ± 1.2%
[3]; [16]
  activity at 0.3 µM: 111 ± 15.7%
  activity at 1 µM: 123 ± 15%
  activity at 3 µM: 188 ± 23.3%
[3]; [17]
  effect on AP rise time (Trise) (in words): increased
  effect on APD90 (in words): increased
  effect on cycle length (in words): increased
[3]; higher concentrations, FM and MM
  electrical activity of the monolayers at higher concentrations: electrically quiescent
